Laboratory results taken from patent US20120328605A1, “COMPOSITIONS AND USES” (priority 2010, published 2012).
Entries after “also recorded” stand apart in the source; their conditions may differ.

Key:
CD11b+ monocytes = test: In vivo uptake assay of Aβ42 after immunization or passive immunotherapy; set-up: species or system C57BL/6 mice; antibody-mediated Aβ peripheral uptake: dose or concentration left out as unconfirmed; details: FIG. 22
Method: Mice: C57BL/6 female mice were purchased from Charles River. […]
[…] At day 22, 5 μg per mouse of fluorescent HiLyte Fluor™ 488-labeled Amyloid β 1-42 (Anaspec, Fremont, Calif.) was injected in the tail vein. Preparation of cells: Peripheral blood was drawn from immunized C57BL/6 mice via cardiac puncture with lithium-heparin as anticoagulant, 2 hours after i.v. injection of the Aβ1-42 HiLyte Fluor™ 488 (Day 22). Plasma of pooled blood was decanted and saved for measurement of antibody titres by ELISA. Red blood cell lysis was performed twice with Ammonium Chloride-based Buffer (Sigma, Steinheim, Germany) and cells were counted with the EasyCount™ System (Immunicon).
(§1) FACS analysis: 500,000 cells were aliquoted in a 96-well plate, washed once, incubated for 10 min. on ice in the presence of Rat anti-Mouse CD16/CD32 (clone 2.4G2-BD Fc Block™) and further stained for 30 min. with a combination of the following directly conjugated antibodies at their pre-determined optimal concentration: PE-Hamster anti-Mouse CD3 (clone 145-2C11), Rat anti-Mouse CD45R/B220 (clone RA3-6B2), Rat anti-Mouse Ly-6G (clone 1A8), Mouse anti-Mouse NK1.1 (clone PK136), APC-conjugated Rat anti-Mouse CD11b (clone M1/70), PE-Cy7-conjugated Hamster anti-Mouse CD11c (clone HL3), (all from BD PharMingen). Cells were finally washed twice and fixed for 15 min. with a 2% paraformaldehyde solution in PBS. […]

[1] = system: CD11b+ peripheral blood monocytes; test: Ex vivo uptake assay of Aβ1-42 by peripheral blood monocytes; format: cell-based, C57BL/6 mice; details: AS01B mouse full dose (5 ug per mouse) or CRX601 2 μg i.m.; FIG. 14
Method: Preparation of cells: Peripheral blood was drawn from C57BL/6 mice via cardiac puncture with lithium-heparin as anticoagulant, 24-hours after injection of the adjuvants used herein. Red blood cell lysis was performed twice on pooled blood with Ammonium Chloride-based Buffer (Sigma, Steinheim, Germany) and cells were counted with the EasyCount™ System (Immunicon). […]
as §1, with “analysis: cells were harvested after incubation with fluorescent Aβ peptide with Trypsin/EDTA and cold PBS and washed three times.” for “analysis:”, “incubated” for “aliquoted”, “in” for “in a”, “plate” for “plate, washed once, incubated”, “PharMingen).” for “PharMingen). Cells were finally washed twice and fixed for 15 min. with a 2% paraformaldehyde solution in PBS.”
Samples were acquired on a flow cytometer (BD FACSCanto II) and data analyzed with the FACSDiva software (BD Biosciences). […]

CCCCCCCCCCC[C@H](CC(=O)N[C@H]1[C@H](OC[C@H](NC(=O)C[C@@H](CCCCCCCCCCC)OCCCCCCCCCC)C(=O)O)O[C@H](CO)[C@@H](OP(=O)(O)O)[C@@H]1OC(=O)C[C@@H](CCCCCCCCCCC)OCCCCCCCCCC)OCCCCCCCCCC [CRX601]
antibody-mediated Aβ uptake, effect of CRX601 when combined with AS03 emulsion (CD11b+ monocytes; CRX601 20 ug with AS03): partially quenched | antibody-mediated Aβ peripheral uptake (CD11b+ monocytes; single i.m. injection, 24 hrs, Aβ Fluor i.v., 2 hrs): highest Aβ uptake; also recorded: Dose-response observed | ex vivo uptake of Aβ42 by monocytes compared to PBS group [1]: higher amount of Aβ42
